# Assay: Human HepG2 cell viability assay in 384 well format
# Type: toxicity, cell-based
# Design: dose 125 nL, time 70.5 hour; concentration not given beside the values
# Details: HepG2 cells, read-out: Inhibition
row,SMILES,cytotoxicity at 70.5 h
1,c1cc(-c2cnc(C3CCNCC3)cn2)n[nH]1,12.8%
2,Cc1cc(C)nc(N2CCOC(C)(C(=O)N(C)C)C2)n1 (stereo unspecified),-4.59%
3,Cc1c(CN2CCCC2(C)C(=O)N2CCOCC2)cnn1C (stereo unspecified),-7.03%
4,Cc1nccc(C2CN(C(=O)c3cncnc3)C2)n1,-13.8%
5,Cc1cnc(N2CCOC(C(=O)NCc3ccccc3)C2)s1 (stereo unspecified),-15.2%
6,CCn1ccc2ccnc(CC3CN(C(=O)c4cnco4)C3)c21,-6.85%
7,COCC(=O)NC[C@H]1CC[C@H](c2nnc(-c3cccnc3)o2)CC1,-7.6%
8,Cc1ccc(C2CN(Cc3cccc4[nH]ccc34)CCO2)nc1 (stereo unspecified),46%
9,Cc1ccn(CCNC(=O)C2CCN(S(=O)(=O)c3ccc(F)cc3)C2)n1 (stereo unspecified),8.09%
10,CC1(C(=O)NC2CCCC2)CCCN(c2ncccn2)C1 (stereo unspecified),6.47%
11,CNc1nc(C2CCN(C(=O)CC3CCCC3)C2)nc2c1CN(C)CC2 (stereo unspecified),8.17%
12,CCN1CCCC(O)(c2nc(C)c(CCOc3ccccc3Cl)s2)CC1 (stereo unspecified),-7.73%
13,CC(=O)N1CCc2nnc(C3CCCCN3CC3CC3)n2CC1 (stereo unspecified),-13%
14,Cc1noc(C)c1-c1ccnc(C2CCN(S(=O)(=O)N(C)C)CC2)c1,-2.76%
15,CC(=O)N1CCn2c(nnc2C2CCCCN2Cc2ccccc2Cl)C1 (stereo unspecified),-3.34%
16,COCc1ccc(C(=O)N2CCC(c3cc4nccnc4[nH]3)CC2)cc1,-14.3%
17,Cc1ccnc(C2CCN(C(=O)CCn3ncc4ccccc43)C2)n1 (stereo unspecified),-8.45%
18,Cc1cc(C(=O)NCCc2c(C)nn(C)c2C)nc(N2CCCCC2)n1,20.6%
19,CCOC(=O)c1n[nH]cc1-c1cncn1CCn1nc(C)c(Cl)c1C,-5.26%
20,CNC(=O)c1cn[nH]c1C1CCN(Cc2cn(C)nc2C)C1 (stereo unspecified),-12.4%
21,CN1CCOC(C)(C(=O)N2CCN(C3CCCC3)CC2)C1 (stereo unspecified),-11.9%
22,CS(=O)(=O)c1cn[nH]c1C1CCCN(C(=O)Cn2cccn2)C1 (stereo unspecified),-9.34%
23,CN(C)c1cc(C2CCCN(S(=O)(=O)C3CCCC3)C2)ccn1 (stereo unspecified),-7.46%
24,O=C(Cn1cc(Cl)cn1)N1CCCC(c2ccn[nH]2)C1 (stereo unspecified),-7.33%

row,SMILES,cytotoxicity at 70.5 h
1,Cn1cncc1CN1CCCC1c1cncc(Oc2ccc(Cl)cc2)n1 (stereo unspecified),8.74%
2,Cc1nccn1CCC1CCN(C(C)C)CC1,-2.75%
3,O=C(c1cc[nH]n1)N1CCC(c2cc(Nc3ccccn3)n[nH]2)CC1,-8.04%
4,CCc1nccn1-c1cccc(C2CCN(C(=O)COC)CC2)n1,0.0936%
5,CNC(=O)C1(C)CCCN(c2cnccn2)C1 (stereo unspecified),-8.04%
6,CCn1cc(CN2CCN(CC(O)c3ccc(C)cc3C)CC2)cn1 (stereo unspecified),-4.8%
7,O=C1NC[C@]2(CC[C@@H](C(=O)N3CCCC(O)C3)CC2)Oc2ccccc21 (stereo partly specified),-7.1%
8,O=C(CCn1c(C(F)(F)F)cc2cccnc21)NC1CCCC1,-3.77%
9,O=C(c1nsc(Cl)c1Cl)N1CCc2nc3sccc3c(=O)n2CC1,-3.17%
10,Cn1cc(Cl)c(C(=O)N2CCc3nc4sccc4c(=O)n3CC2)n1,-2.51%
11,CCC(CN1CCCC1)NC(=O)Cc1c(C)[nH]c2cc(C)cc(C)c12 (stereo unspecified),-4.71%
12,CCC(CN1CCOCC1)NC(=O)Cc1c(C)[nH]c2cc(C)cc(C)c12 (stereo unspecified),0.203%
13,O=C(Cn1cc(Cl)cn1)N1CCCC(c2cc3ccccc3cn2)C1 (stereo unspecified),23.4%
14,COCC(=O)N1CCC(c2cc3ncccc3c(O)n2)CC1,-7.25%
15,O=C(NCCO)C1(Cc2ccccc2-c2ccncc2)CCOCC1,-7.35%
16,O=C(CCC1CCCC1)N1CCC(c2cc3ncccc3c(O)n2)CC1,0.616%
17,CCc1nnsc1C(=O)NCCCC(CC)(CC)C1OCCO1,-15.8%
18,CC(C)(C)CC(=O)N1CCc2sccc2C1,-7.51%
19,CC1(C)COCCN1C(=O)CCc1nc(-c2ccc(Cl)cc2)no1,-20%
20,NC(=O)C(NC(=O)c1ccc(NC2CC2)nc1)c1ccccc1 (stereo unspecified),-5.49%
21,CCCc1c(C(=O)N2CCN(c3ncccn3)CC2)cnn1C,-10.6%
22,Cc1cccc(CS(=O)(=O)Cc2ccn(C)c(=O)c2)c1,-12.8%
23,COC(=O)C(NC(=O)c1ccc(NC2CC2)nc1)c1ccccc1 (stereo unspecified),-5.38%
24,N#Cc1ccc(Cn2cncn2)c(F)c1,-12.7%

row,SMILES,cytotoxicity at 70.5 h
1,COc1ccc(CNCCc2cccc(C(N)=O)c2)cc1O,-6.24%
2,O=C(NC1CCc2nccn2C1)c1ccc(NC2CC2)nc1 (stereo unspecified),-12%
3,CC(CCc1cccn1C)NC(=O)Nc1cccn(C)c1=O (stereo unspecified),-10.4%
4,Cc1ccc(S(=O)(=O)N(C)Cc2cnccn2)cc1N(C)C,-1.07%
5,O=C(CNc1nc(C2CC2)ns1)N1CCc2sccc2C1,-10.8%
6,O=C(c1ccc[nH]1)N1CCN(C(c2ccccc2)C(F)(F)F)CC1 (stereo unspecified),-7.16%
7,O=C(Cc1ccon1)N(CCC(F)(F)F)C1CCCC1,-3.19%
8,O=C(Cc1cccc(F)c1F)NS(=O)(=O)c1cncc(Cl)c1,-2.5%
9,CC(C)C(C)NC(=O)Nc1cccn(C)c1=O (stereo unspecified),4.29%
10,Cc1cc(F)ccc1N1CCCC(NS(=O)(=O)CCCF)C1=O (stereo unspecified),-6.3%
11,CCS(=O)(=O)NC1CCCN(c2cc(C)ccc2F)C1=O (stereo unspecified),-1.61%
12,COc1ccccc1CC(C)N(C)S(C)(=O)=O (stereo unspecified),-6.61%
13,CNS(=O)(=O)Cc1cccc(CNCc2ccsc2)c1,-8.06%
14,CCC(=O)N(C)Cc1cccc(OC(C)C)c1,-5.79%
15,CSc1cccc(NC(=O)CCC(=O)Nc2nccs2)c1,14.4%
16,Cn1cc(NC(=O)c2cccc(-n3cnnn3)c2)cn1,-13.6%
17,N#CC1(C(=O)N2CCOC(c3ccc(Cl)cc3)C2)CCCC1 (stereo unspecified),-15.9%
18,Cc1cc(C)c(S(N)(=O)=O)cc1C(=O)NCCN1CCCCC1,-16.1%
19,CN(Cc1ccc(F)cc1)C(=O)c1ccoc1CN1CCNC(=O)C1,-18.2%
20,COc1ccccc1CCNC(=O)NCC(=O)Nc1cccnc1,-0.968%
21,CCC(=O)Nc1nnc2n(Cc3cccc(OC)c3)[nH]c(C)c1-2,-0.289%
22,CC(C)(C)CNC(=O)c1ccc(C(=O)O)cn1,23.3%
23,COc1ccccc1CC(C)(C)C(=O)NCC(=O)Nc1cccnc1,3.9%
24,CSCC(=O)NC1(c2cccc(Cl)c2)CC1,-3.77%

row,SMILES,cytotoxicity at 70.5 h
1,NC(=O)CSCC(=O)NC1(c2cccc(Cl)c2)CC1,2.26%
2,CC(C)c1nc(C2CCCN2C(=O)c2cc(Cl)c[nH]2)no1 (stereo unspecified),-2.12%
3,N#Cc1ccc(S(=O)(=O)NC(=O)C2CC(c3ccccc3)=NO2)cc1 (stereo unspecified),-12.1%
4,O=C(Cc1ccc(F)cc1F)NCC(=O)Nc1ccccn1,-5.81%
5,CC(C)n1nnnc1-c1ccc(NC(=O)CCC(F)(F)F)cc1F,-18%
6,CSC(C)C(=O)Nc1ccnn1-c1ccccc1C (stereo unspecified),31.2%
7,O=C(NCC(O)c1cccc(F)c1)c1sccc1OC(F)F (stereo unspecified),-3.42%
8,CCc1nc(Cn2cncc(Br)c2=O)no1,-8.84%
9,CN1CCC(N(Cc2ccco2)S(=O)(=O)c2ccc(Br)cc2Cl)CC1,1.77%
10,CN1CCC(N(Cc2ccco2)S(=O)(=O)c2cc(Br)ccc2Br)CC1,1.03%
11,CN1CCC(N(Cc2ccco2)S(=O)(=O)c2ccc(Cl)cc2)CC1,-3.29%
12,Cc1ccc(OCC(=O)NS(=O)(=O)Cc2ccccc2)cc1,-5.22%
13,Cc1nnc(NCCc2coc(-c3ccc(F)cc3)n2)c(C#N)c1C,-13.9%
14,O=C(Nc1ccc(-c2ccccc2)cn1)C1CCN(C(=O)C2CC2)CC1,-1.82%
15,Cc1ccc(-c2noc(CNCC3CN(C)CCO3)n2)cc1F (stereo unspecified),-5.24%
16,Cc1ccc2oc(N3CCN(CC(=O)NC(C)C)CC3)nc2c1,10.6%
17,Cc1cc(C)n(CC2CCCN2Cc2cccc(C#N)c2)n1 (stereo unspecified),-3.89%
18,Cc1ccc(CN(C)C(=O)NCC(C)(C)NS(C)(=O)=O)s1,-3.9%
19,CC(=O)c1cccc(OCC(=O)N(CC(C)C)C2CCN(C)CC2)c1,10.2%
20,CC(C)CC(C)(CNC(=O)c1cnccn1)NC(=O)c1cnccn1 (stereo unspecified),-0.237%
21,O[C@@H]1CN(Cc2cc(Cl)cc3cccnc23)C[C@@H]1O,-4.72%
22,Cc1ncc(S(=O)(=O)Nc2ccnn2C(C)C)[nH]1,3.96%
23,COC(C)c1cccc(NCc2ccsc2)c1 (stereo unspecified),-2.9%
24,CC(C)(CNC(=O)C1(c2cccc(Br)c2)CCOCC1)C(=O)O,-0.158%

row,SMILES,cytotoxicity at 70.5 h
1,O=C(NCC(O)c1cccs1)c1sccc1OC(F)F (stereo unspecified),-3.63%
2,CCc1ncc2c(n1)CN(CC1CCCCO1)CC2 (stereo unspecified),8.28%
3,Cc1cc(C2CCCN(C(=O)COc3ccc(F)cc3F)C2)n[nH]1 (stereo unspecified),-4.95%
4,CCOC(=O)N(C)C1CCN(Cc2ccsc2)CC1,19.3%
5,CN(CCOc1ccc(C#N)cc1)CC1CC1,3.53%
6,O=C(CCn1ccnn1)N1CCCC(n2cncn2)C1 (stereo unspecified),-6.6%
7,CC1CN(C)CCN1C(=O)Cc1cc(Cl)c2c(c1)OCCO2 (stereo unspecified),-6.51%
8,COc1c(C2CCCN2CC(=O)Nc2nccs2)c(C)nn1C (stereo unspecified),-2.85%
9,COc1cccc(CCC(=O)Nc2cnc3c(c2)c(C)nn3C)c1OC,-14.1%
10,Cc1noc(CNc2cc3c(cc2Cl)NC(=O)CO3)n1,-10.2%
11,COC1CCN(c2ccc(F)cc2CN(C)S(C)(=O)=O)CC1,-8.29%
12,COC1CCN(c2ccc(F)cc2CN(C)CC(N)=O)CC1,-4.87%
13,Cc1cc2n(n1)CC(CNCc1cc(C)on1)CN2 (stereo unspecified),-9.53%
14,CCOc1ccc2cc(C(=O)NCCNc3ccc(C)nn3)[nH]c2c1,-8.09%
15,O=C(C1CCC1)N1C[C@@H](c2ccsc2)[C@@H]2CN(C3CCCCC3)CC[C@@H]21,14.8%
16,CC(=O)N1CCC[C@@H](NCc2cccc(F)c2)[C@@H]1c1ccc(C)s1,-6.03%
17,CC(=O)N1CCC[C@@H](NCc2c[nH]c3ccccc23)[C@@H]1c1ccc(C)s1,-8.53%
18,CC1Cc2cc(-c3cncn3CC(=O)NC(C)(C)C)ccc2N1C (stereo unspecified),-7.08%
19,CCOC(=O)c1n[nH]cc1-c1cncn1CCCn1nc(C)cc1C,-5.33%
20,c1ccc(CCNc2cccc(C3CCCNC3)n2)cc1 (stereo unspecified),6.58%

# From ChEMBL document CHEMBL3507680, “University of Dundee, Gates Library screen for HepG2 cell viability”
